According to patent EP0584256B1, “COMPOUNDS AND PHARMACEUTICAL COMPOSITIONS FOR DETECTING AND LOCALIZING TISSUES HAVING NEUROKININE 1 RECEPTORS” (MALLINCKRODT MEDICAL, INC., priority 1991, dated 1999):

Legend:
[1] = test system: human meningioma membranes; test: Binding of [125I]BH-SP to human meningioma membranes; settings: Figure 1
Procedure: (§1) Binding studies in vitro are carried out in a standardized system by studying the displacement of ^125I-Bolton Hunter substance P {[^125I]BH-SP} by the above-synthetized labelled peptides.

SP-receptors [2] = test: Displacement of / binding of [125I]BH-SP, rat brain cortex membranes; settings: membranes of the cortex of rat brains; Figure 1
Procedure: as §1

[3] = assay type: in vitro ADME, rat
Source text: A liver perfusion model is used as described by Docter et al. in Endocrinology 1990, 126, 451-459. It is a generally accepted fact in this art, that handling of bio-active substances by the isolated perfused rat liver according to this model has a very good predictable value for the appearance of metabolites of the used substance in the circulation of human beings. In short, in this model isolated livers are perfused in a recirculating system with Krebs-Ringer medium supplemented with 1% bovine serum albumin and 10 mM glucose. After 0.5 hr preperfusion, experiments are started by addition of the labelled substance P (5 µCi) to the medium. At regular time points medium samples are taken. Medium samples are analyzed by column chromatography, using Seppak^(R) C-18 columns.
The average results are presented in Figures 4-6, showing the disappearance of the total radioactivity ("tot. act.") and of the peptide-bound radioactivity ("protein") with concomitant appearance of non-peptide bound radioactivity in the circulating medium as a degradation product.
Figures 7-9 show the excretion of the tested labelled peptides into the bile.

SP-receptors [4] = test: Displacement of / binding of [125I]BH-SP, human glioma membranes; settings: Figure 1
Procedure: as §1

## [^125I]BH-SP: ^125I-Bolton Hunter substance P, known radioligand from in vitro binding studies
[1]
  specific binding to membranes: not
SP-receptors [2]
  specific binding to membranes: specifically binds
[3]
  liver metabolic clearance: relatively fast
SP-receptors [4]
  specific binding to membranes: specifically binds
